Laboratory results as given in patent publication US20060128614A1, “Antimicrobial peptides with reduced hemolysis and methods of their use” (priority 2002, published 2006).
In brackets after ≈: the same amount, converted by molar mass. Where two headings read alike, the source gives them in different places. Non-standard residues stand in square brackets, D forms with d. Residues, ends and D or L forms follow the SMILES beside them. Bip = N[C@@H](Cc1ccc(-c2ccccc2)cc1)C(=O)O; 1Nal = N[C@@H](Cc1cccc2ccccc12)C(=O)O; 2Nal = N[C@@H](Cc1ccc2ccccc2c1)C(=O)O

Experiments:
E. coli = format: cell-based, Escherichia coli
Protocol: (§1) The in vitro antimicrobial activities of antimicrobial agents were tested using standard NCCLS bacterial and fungi inhibition assays or minimum inhibition concentration (MIC) tests. The MIC value is the lowest concentration of peptide at which the visible growth of test organisms was inhibited and reduced. Overnight cultures of the test organisms were diluted to produce an inoculum containing approximately […] in Meuller-Hinton broth (MHB). From the peptide stock solution, serial dilutions of the peptides into […] were prepared and all wells of a 96-well microtiter plate were subsequently inoculated with the diluted culture of the test organisms. After 18 hours of incubation at 37°, the results were assayed for turbidity as an indicator of cell growth. MIC values for the peptides are shown in Table 3 and Table 4 and FIGS. 1(A), 1(B), 1 (C) and 1 (D) show survival rates for Pac-625 and Pac-626.

S. aureus = format: cell-based, Staphylococcus aureus
Protocol: as §1

[1] = qualitative statement
[2] = tested on: outer membrane of E. coli; assay: NPN uptake assay, outer membrane permeabilization; format: cell-based; conditions: intact cells of E. coli
Protocol: The outer membrane permeabilization activity of the peptide variants was determined by the 1-N-phenylnaphthylamine (NPN) uptake assay, using intact cells of E. coli. […] Since NPN is hydrophobic, it provides a direct measurement of the degree of outer membrane permeability. E. coli take up little or no NPN in a general condition. In the presence of permeabilizer compounds (EDTA, polymyxin B, Neomycin, or antimicrobial peptides), NPN partitioned into the bacterial outer membrane results in an increase in fluorescence. Fluorescence will vary with the concentration of peptide.
One ml of overnight culture was used to inoculate 50 ml of media and incubated at 37° C. with shaking. The culture was permitted to grow to an OD600 of 0.4 to 0.6, cells were spun down at 3500 rpm for 10 minutes, washed, and re-suspended in buffer to an OD600 of 0.5. The OD600 was recorded, 1 ml of cells (OD600=0.5) was added to the cuvette and measured after 2-5 seconds. 20 μl NPN 0.5 mM, shaken to mix, was added and measured after 2-5 seconds. 10 ul antibiotic 100× desired final concentration was added, shaken to mix, and measured until the maximal value was reached within 1 to 5 minutes. The concentration of peptide leading to 50% of the maximum increase in NPN uptake was recorded as the P50.

[3] = tested on: human red blood cells (RBC); format: cell-based
Protocol: Pac-401, Pac-403, Pac-625 and Pac-626 were tested for hemolysis against human red blood cells (RBC). The RBCs with EDTA were rinsed 3 times with PBS (800 g, 10 min) and re-suspended in PBS. The RBCs were diluted into 10% with phosphate-buffered saline and placed […] into each eppendorf. The peptides dissolved in PBS were then added to 50 μl of 10% solution of RBCs and incubated for an hour at 37° C. (final RBC concentration, 5% v/v). The samples were centrifuged at 800 g for 10 min […]. Various concentrations of peptides were incubated with pretreated RBC and the percentage of hemolysis determined.

SMILES | MIC against E. coli (E. coli; 18 h) | MIC against S. aureus (S. aureus; 18 h) | also measured
CC[C@H](C)[C@H](NC(=O)[C@H](Cc1ccc2ccccc2c1)NC(=O)[C@H](CCCNC(=N)N)NC(=O)[C@@H](NC(=O)[C@H](Cc1ccc2ccccc2c1)NC(=O)[C@H](CCCNC(=N)N)NC(=O)[C@@H](NC(=O)[C@H](Cc1ccc2ccccc2c1)NC(=O)[C@H](CCCCN)NC(C)=O)[C@@H](C)CC)C(C)C)C(N)=O [Pac-629, Ac-K(2-Nal) IR(2-Nal) VR(2-Nal) I-NH2] (Ac-K[2Nal]IR[2Nal]VR[2Nal]I-NH2) |  |  | MIC against E. coli (E. coli): 8 µg/mL (≈ 5.65 µM); MIC against S. aureus (S. aureus): 4 µg/mL (≈ 2.82 µM)
CC[C@H](C)[C@H](NC(C)=O)C(=O)N[C@@H](Cc1c[nH]c2ccccc12)C(=O)N[C@@H](CCCNC(=N)N)C(=O)N[C@H](C(=O)N[C@@H](Cc1c[nH]c2ccccc12)C(=O)N[C@@H](CCCNC(=N)N)C(=O)N[C@@H](CCCNC(=N)N)C(=O)N[C@@H](Cc1c[nH]c2ccccc12)C(=O)N[C@@H](CCCCN)C(N)=O)C(C)C [Pac-525rev, Ac-IWRVWRRWK-NH2] (Ac-IWRVWRRWK-NH2) |  |  | hemolytic activity [1]: very similar to that of Pac-525
CC(=O)N[C@@H](CCCCN)C(=O)N[C@@H](Cc1ccc2ccccc2c1)C(=O)N[C@@H](CCCNC(=N)N)C(=O)N[C@@H](CCCNC(=N)N)C(=O)N[C@@H](Cc1ccc2ccccc2c1)C(=O)N[C@H](C(N)=O)C(C)C [Pac-402 L, K (2-Nal) R R (2-Nal) V] (Ac-K[2Nal]RR[2Nal]V-NH2; N-terminus and C-terminus assumed) | 24 µg/mL (≈ 24.2 µM) | 16 µg/mL (≈ 16.1 µM) | P50 (concentration of peptide leading to 50% of the maximum increase in NPN uptake) [2]: 16 µg/mL
CC[C@H](C)[C@H](NC(=O)[C@H](Cc1ccc2ccccc2c1)NC(=O)[C@H](CCCCN)NC(C)=O)C(=O)N[C@@H](CCCCN)C(=O)N[C@@H](Cc1ccc2ccccc2c1)C(=O)N[C@@H](CCCNC(=N)N)C(N)=O [Pac-403 L, K (2-Nal) I K (2-Nal) R] (Ac-K[2Nal]IK[2Nal]R-NH2) | 24 µg/mL (≈ 24.5 µM) | 16 µg/mL (≈ 16.3 µM) | % lysis @ 5 μg/ml [3]: 0.74%; % lysis @ 50 μg/ml [3]: 7.2%; % lysis @ 500 μg/ml [3]: 15%
CC[C@H](C)[C@@H]1NC(=O)[C@H](Cc2ccc3ccccc3c2)NC(=O)[C@H](CCCCN)NC(=O)[C@H](CCCNC(=N)N)NC(=O)[C@H](Cc2ccc3ccccc3c2)NC(=O)[C@H](CCCCN)NC1=O [Pac-403 C, K (2-Nal) I K (2-Nal) R] (cyclo(K[2Nal]IK[2Nal]R); ring closure inferred) | >64 µg/mL | >64 µg/mL | 
CC(C)[C@@H]1NC(=O)[C@H](Cc2ccc3ccccc3c2)NC(=O)[C@H](CCCNC(=N)N)NC(=O)[C@H](CCCNC(=N)N)NC(=O)[C@H](Cc2ccc3ccccc3c2)NC(=O)[C@H](CCCCN)NC1=O [Pac-402 C, K (2-Nal) R R (2-Nal) V] (cyclo(K[2Nal]RR[2Nal]V); ring closure inferred) | >64 µg/mL | >64 µg/mL | 
CC[C@H](C)[C@H](NC(=O)[C@H](Cc1ccc2ccccc2c1)NC(=O)[C@H](CCCCN)NC(=O)[C@@H](NC(=O)[C@H](Cc1ccc2ccccc2c1)NC(=O)[C@H](CCCCN)NC(=O)[C@@H](NC(=O)[C@H](Cc1ccc2ccccc2c1)NC(=O)[C@H](CCCCN)NC(C)=O)[C@@H](C)CC)[C@@H](C)CC)C(N)=O [Pac-621, Ac-K(2-Nal) IK(2-Nal) IK(2-Nal) I-NH2] (Ac-K[2Nal]IK[2Nal]IK[2Nal]I-NH2) |  |  | MIC against E. coli (E. coli): 8 µg/mL (≈ 5.82 µM); MIC against S. aureus (S. aureus): 16 µg/mL (≈ 11.6 µM)
CC[C@H](C)[C@@H]1NC(=O)[C@H](Cc2ccc3ccccc3c2)NC(=O)[C@H](CCCNC(=N)N)NC(=O)[C@H](CCCNC(=N)N)NC(=O)[C@H](Cc2ccc3ccccc3c2)NC(=O)[C@H](CCCCN)NC1=O [Pac-401 C, K (2-Nal) R R (2-Nal) I] (cyclo(K[2Nal]RR[2Nal]I); ring closure inferred) | >64 µg/mL | >64 µg/mL | 
CC[C@H](C)[C@H](NC(=O)[C@H](Cc1ccc2ccccc2c1)NC(=O)[C@H](CCCNC(=N)N)NC(=O)[C@H](CCCNC(=N)N)NC(=O)[C@H](Cc1ccc2ccccc2c1)NC(=O)[C@H](CCCCN)NC(C)=O)C(N)=O [Pac-401 L, K (2-Nal) R R (2-Nal) I] (Ac-K[2Nal]RR[2Nal]I-NH2) | 16 µg/mL (≈ 15.9 µM) | 8 µg/mL (≈ 7.94 µM) | % lysis @ 5 μg/ml [3]: 0.85%; % lysis @ 50 μg/ml [3]: 6.8%; % lysis @ 500 μg/ml [3]: 14%

Now from value to compound, other results behind:

MIC against E. coli (E. coli; 18 h) | MIC against S. aureus (S. aureus; 18 h) | SMILES | also measured
64 µg/mL (≈ 45.7 µM) | 64 µg/mL (≈ 45.7 µM) | CC[C@H](C)[C@@H]1NC(=O)[C@H](Cc2ccc3ccccc3c2)NC(=O)[C@H](CCCNC(=N)N)NC(=O)[C@H](C(C)C)NC(=O)[C@H](Cc2ccc3ccccc3c2)NC(=O)[C@H](CCCNC(=N)N)NC(=O)[C@H](CCCNC(=N)N)NC(=O)[C@H](Cc2ccc3ccccc3c2)NC(=O)[C@H](CCCCN)NC1=O [Pac-625 C, K (2-Nal) R R (2-Nal) V R (2-Nal) I] (cyclo(K[2Nal]RR[2Nal]VR[2Nal]I); ring closure inferred) | 
2 µg/mL (≈ 1.3 µM) | 4 µg/mL (≈ 2.6 µM) | CC[C@H](C)[C@H](NC(=O)[C@H](Cc1ccc(-c2ccccc2)cc1)NC(=O)[C@H](CCCNC(=N)N)NC(=O)[C@@H](NC(=O)[C@H](Cc1ccc(-c2ccccc2)cc1)NC(=O)[C@H](CCCNC(=N)N)NC(=O)[C@H](CCCNC(=N)N)NC(=O)[C@H](Cc1ccc(-c2ccccc2)cc1)NC(=O)[C@H](CCCCN)NC(C)=O)C(C)C)C(N)=O [Pac-628 L, K (Bip) R R (Bip) V R (Bip) I] (Ac-K[Bip]RR[Bip]VR[Bip]I-NH2) | MIC against E. coli (E. coli): 2 µg/mL (≈ 1.3 µM); MIC against S. aureus (S. aureus): 4 µg/mL (≈ 2.6 µM); P50 (concentration of peptide leading to 50% of the maximum increase in NPN uptake) [2]: 4 µg/mL
4 µg/mL (≈ 2.74 µM) | 4 µg/mL (≈ 2.74 µM) | CC[C@H](C)[C@H](NC(=O)[C@H](Cc1cccc2ccccc12)NC(=O)[C@H](CCCNC(=N)N)NC(=O)[C@@H](NC(=O)[C@H](Cc1cccc2ccccc12)NC(=O)[C@H](CCCNC(=N)N)NC(=O)[C@H](CCCNC(=N)N)NC(=O)[C@H](Cc1cccc2ccccc12)NC(=O)[C@H](CCCCN)NC(C)=O)C(C)C)C(N)=O [Pac-627 L, K (1-Nal) R R (1-Nal) V R (1-Nal) I] (Ac-K[1Nal]RR[1Nal]VR[1Nal]I-NH2) | MIC against E. coli (E. coli): 4 µg/mL (≈ 2.74 µM); MIC against S. aureus (S. aureus): 4 µg/mL (≈ 2.74 µM)
64 µg/mL (≈ 43.3 µM) | 64 µg/mL (≈ 43.3 µM) | CC[C@H](C)[C@@H]1NC(=O)[C@H](Cc2ccc(-c3ccccc3)cc2)NC(=O)[C@H](CCCNC(=N)N)NC(=O)[C@H](C(C)C)NC(=O)[C@H](Cc2ccc(-c3ccccc3)cc2)NC(=O)[C@H](CCCNC(=N)N)NC(=O)[C@H](CCCNC(=N)N)NC(=O)[C@H](Cc2ccc(-c3ccccc3)cc2)NC(=O)[C@H](CCCCN)NC1=O [Pac-628 C, K (Bip) R R (Bip) V R (Bip) I] (cyclo(K[Bip]RR[Bip]VR[Bip]I); ring closure inferred) | 
64 µg/mL (≈ 45.7 µM) | 64 µg/mL (≈ 45.7 µM) | CC[C@H](C)[C@@H]1NC(=O)[C@H](Cc2cccc3ccccc23)NC(=O)[C@H](CCCNC(=N)N)NC(=O)[C@H](C(C)C)NC(=O)[C@H](Cc2cccc3ccccc23)NC(=O)[C@H](CCCNC(=N)N)NC(=O)[C@H](CCCNC(=N)N)NC(=O)[C@H](Cc2cccc3ccccc23)NC(=O)[C@H](CCCCN)NC1=O [Pac-627 C, K (1-Nal) R R (1-Nal) V R (1-Nal) I] (cyclo(K[1Nal]RR[1Nal]VR[1Nal]I); ring closure inferred) | 
64 µg/mL (≈ 45.7 µM) | 64 µg/mL (≈ 45.7 µM) | CC[C@H](C)[C@@H]1NC(=O)[C@H](CCCCN)NC(=O)[C@H](Cc2ccc3ccccc3c2)NC(=O)[C@H](CCCNC(=N)N)NC(=O)[C@H](CCCNC(=N)N)NC(=O)[C@H](Cc2ccc3ccccc3c2)NC(=O)[C@H](C(C)C)NC(=O)[C@H](CCCNC(=N)N)NC(=O)[C@H](Cc2ccc3ccccc3c2)NC1=O [Pac-626 C, I (2-Nal) R V (2-Nal) R R (2-Nal) K] (cyclo(I[2Nal]RV[2Nal]RR[2Nal]K); ring closure inferred) | 
